Assay results: ChEMBL document CHEMBL4052645, “Discovery of potent and efficacious pyrrolopyridazines as dual JAK1/3 inhibitors” (Bioorg Med Chem Lett, 2017)

Legend:
[1] = biological target: Misshapen-like kinase 1 (Homo sapiens) (UniProt Q8N4C8); assay: Inhibition of wild-type human partial length MINK (M1 to K312 residues) expressed in mammalian expression system assessed as residual activity at 50 nM by Kinomescan method relative to control
[2] = biological target: Serine/threonine-protein kinase 32A (Homo sapiens) (UniProt Q8WU08); assay: Inhibition of wild-type human full length STK32A (M1 to L396 residues) expressed in mammalian expression system assessed as residual activity at 50 nM by Kinomescan method relative to control
[3] = biological target: 5'-AMP-activated protein kinase catalytic subunit alpha-1 (Homo sapiens) (UniProt Q13131); assay: Inhibition of wild-type human partial length AMPK alpha1 (M1 to E306 residues) expressed in bacterial expression system assessed as residual activity at 50 nM by Kinomescan method relative to control
[4] = biological target: cAMP-dependent protein kinase catalytic subunit beta (Homo sapiens) (UniProt P22694); assay: Inhibition of wild-type human full length PKACB (M1 to F351 residues) expressed in bacterial expression system assessed as residual activity at 50 nM by Kinomescan method relative to control
[5] = biological target: Interferon-induced, double-stranded RNA-activated protein kinase (Homo sapiens) (UniProt P19525); assay: Inhibition of wild-type human partial length PKR (F247 to C551 residues) expressed in bacterial expression system assessed as residual activity at 50 nM by Kinomescan method relative to control
Sequence of Interferon-induced, double-stranded RNA-activated protein kinase (Homo sapiens) (P19525 whole entry, the tested form may be a part): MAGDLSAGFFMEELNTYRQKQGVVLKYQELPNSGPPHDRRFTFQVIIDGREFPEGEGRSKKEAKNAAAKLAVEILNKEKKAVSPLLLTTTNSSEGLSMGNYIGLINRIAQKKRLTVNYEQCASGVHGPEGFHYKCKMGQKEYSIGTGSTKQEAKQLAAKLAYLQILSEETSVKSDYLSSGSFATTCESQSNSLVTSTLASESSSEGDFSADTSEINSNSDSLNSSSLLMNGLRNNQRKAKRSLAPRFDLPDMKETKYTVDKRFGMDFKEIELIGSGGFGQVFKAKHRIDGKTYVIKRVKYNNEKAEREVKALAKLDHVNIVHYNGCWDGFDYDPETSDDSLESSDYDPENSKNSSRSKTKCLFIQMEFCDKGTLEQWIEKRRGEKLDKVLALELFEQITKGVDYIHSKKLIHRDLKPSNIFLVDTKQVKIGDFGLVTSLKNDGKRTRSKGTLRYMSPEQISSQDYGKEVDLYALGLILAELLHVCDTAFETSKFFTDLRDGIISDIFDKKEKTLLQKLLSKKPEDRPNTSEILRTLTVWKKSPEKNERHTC

[6] = biological target: Tyrosine-protein kinase Tec (Homo sapiens) (UniProt P42680); assay: Inhibition of wild-type human partial length TEC (L341 to D620 residues) expressed in bacterial expression system assessed as residual activity at 50 nM by Kinomescan method relative to control
[7] = biological target: Fibroblast growth factor receptor 1 (Homo sapiens) (UniProt P11362); assay: Inhibition of wild-type human partial length FGFR1 (P357 to V669 residues) expressed in bacterial expression system assessed as residual activity at 50 nM by Kinomescan method relative to control
Sequence of Fibroblast growth factor receptor 1 (Homo sapiens) (P11362 22-822 limits assumed): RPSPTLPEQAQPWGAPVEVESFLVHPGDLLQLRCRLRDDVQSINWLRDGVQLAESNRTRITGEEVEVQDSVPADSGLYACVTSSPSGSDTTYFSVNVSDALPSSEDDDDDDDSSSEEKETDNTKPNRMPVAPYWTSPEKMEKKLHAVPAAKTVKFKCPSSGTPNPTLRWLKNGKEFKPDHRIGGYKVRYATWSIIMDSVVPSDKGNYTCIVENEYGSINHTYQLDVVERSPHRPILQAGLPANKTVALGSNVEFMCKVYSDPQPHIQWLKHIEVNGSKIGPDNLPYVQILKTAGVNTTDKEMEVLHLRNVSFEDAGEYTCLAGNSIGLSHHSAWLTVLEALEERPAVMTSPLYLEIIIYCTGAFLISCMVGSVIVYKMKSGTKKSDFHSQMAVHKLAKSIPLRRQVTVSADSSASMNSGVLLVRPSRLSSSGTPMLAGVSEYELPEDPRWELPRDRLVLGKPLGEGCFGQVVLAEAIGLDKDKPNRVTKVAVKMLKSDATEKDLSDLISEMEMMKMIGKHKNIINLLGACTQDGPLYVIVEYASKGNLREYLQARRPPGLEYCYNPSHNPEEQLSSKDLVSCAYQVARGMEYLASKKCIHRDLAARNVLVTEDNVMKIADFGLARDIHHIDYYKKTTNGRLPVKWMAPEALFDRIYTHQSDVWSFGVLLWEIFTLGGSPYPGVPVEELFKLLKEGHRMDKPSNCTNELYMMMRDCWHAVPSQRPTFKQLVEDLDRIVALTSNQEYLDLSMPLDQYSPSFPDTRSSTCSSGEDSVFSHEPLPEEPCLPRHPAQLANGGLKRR

[8] = biological target: Phosphatidylinositol 4-phosphate 3-kinase C2 domain-containing subunit beta (Homo sapiens) (UniProt O00750); assay: Inhibition of wild-type human partial length PI3KC2B (M1 to L1634 residues) expressed in mammalian expression system assessed as residual activity at 50 nM by Kinomescan method relative to control
[9] = biological target: Ephrin type-A receptor 3 (Homo sapiens) (UniProt P29320); assay: Inhibition of wild-type human partial length EPHA3 (D604 to K889 residues) expressed in bacterial expression system assessed as residual activity at 50 nM by Kinomescan method relative to control
[10] = biological target: Dual specificity tyrosine-phosphorylation-regulated kinase 1A (Homo sapiens) (UniProt Q13627); assay: Inhibition of wild-type human partial length DYRK1A (H129 to S509 residues) expressed in mammalian expression system assessed as residual activity at 50 nM by Kinomescan method relative to control
[11] = biological target: Phosphatidylinositol 4,5-bisphosphate 3-kinase catalytic subunit beta isoform (Homo sapiens) (UniProt P42338); assay: Inhibition of wild-type human partial length PI3KCB (P118 to S1070 residues) expressed in mammalian expression system assessed as residual activity at 50 nM by Kinomescan method relative to control
[12] = biological target: Casein kinase I isoform gamma-1 (Homo sapiens) (UniProt Q9HCP0); assay: Inhibition of wild-type human partial length CK1G1 (T15 to S353 residues) expressed in bacterial expression system assessed as residual activity at 50 nM by Kinomescan method relative to control
[13] = biological target: Epithelial discoidin domain-containing receptor 1 (Homo sapiens) (UniProt Q08345); assay: Inhibition of wild-type human partial length DDR1 (R565 to V876 residues) expressed in bacterial expression system assessed as residual activity at 50 nM by Kinomescan method relative to control
[14] = biological target: Mitogen-activated protein kinase 6 (Homo sapiens) (UniProt Q16659); assay: Inhibition of wild-type human partial length ERK3 (M1 to P413 residues) expressed in bacterial expression system assessed as residual activity at 50 nM by Kinomescan method relative to control
[15] = biological target: Mitogen-activated protein kinase kinase kinase 3 (Homo sapiens) (UniProt Q99759); assay: Inhibition of wild-type human partial length MAP3K3 (E320 to Y626 residues) expressed in mammalian expression system assessed as residual activity at 50 nM by Kinomescan method relative to control
Sequence of Mitogen-activated protein kinase kinase kinase 3 (Homo sapiens) (Q99759 whole entry, the tested form may be a part): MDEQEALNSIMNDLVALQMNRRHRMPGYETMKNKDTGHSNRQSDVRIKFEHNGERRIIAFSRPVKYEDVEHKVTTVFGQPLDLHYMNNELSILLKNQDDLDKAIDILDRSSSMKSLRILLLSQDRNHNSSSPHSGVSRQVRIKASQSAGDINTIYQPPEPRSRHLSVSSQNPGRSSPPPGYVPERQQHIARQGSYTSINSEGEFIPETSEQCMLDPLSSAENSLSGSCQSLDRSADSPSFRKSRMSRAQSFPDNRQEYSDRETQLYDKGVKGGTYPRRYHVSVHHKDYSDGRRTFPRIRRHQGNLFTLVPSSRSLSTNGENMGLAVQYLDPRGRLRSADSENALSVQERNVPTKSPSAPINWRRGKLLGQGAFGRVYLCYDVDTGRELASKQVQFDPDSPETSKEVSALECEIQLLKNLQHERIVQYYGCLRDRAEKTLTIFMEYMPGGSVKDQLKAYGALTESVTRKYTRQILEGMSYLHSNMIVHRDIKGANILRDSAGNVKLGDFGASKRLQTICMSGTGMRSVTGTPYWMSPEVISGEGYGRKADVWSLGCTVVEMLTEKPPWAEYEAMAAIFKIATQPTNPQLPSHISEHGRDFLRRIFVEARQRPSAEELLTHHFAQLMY

[16] = biological target: Serine/threonine-protein kinase MRCK gamma (Homo sapiens) (UniProt Q6DT37); assay: Inhibition of wild-type human partial length DMPK2 (S46 to S408 residues) expressed in bacterial expression system assessed as residual activity at 50 nM by Kinomescan method relative to control
Sequence of Serine/threonine-protein kinase MRCK gamma (Homo sapiens) (Q6DT37 whole entry, the tested form may be a part): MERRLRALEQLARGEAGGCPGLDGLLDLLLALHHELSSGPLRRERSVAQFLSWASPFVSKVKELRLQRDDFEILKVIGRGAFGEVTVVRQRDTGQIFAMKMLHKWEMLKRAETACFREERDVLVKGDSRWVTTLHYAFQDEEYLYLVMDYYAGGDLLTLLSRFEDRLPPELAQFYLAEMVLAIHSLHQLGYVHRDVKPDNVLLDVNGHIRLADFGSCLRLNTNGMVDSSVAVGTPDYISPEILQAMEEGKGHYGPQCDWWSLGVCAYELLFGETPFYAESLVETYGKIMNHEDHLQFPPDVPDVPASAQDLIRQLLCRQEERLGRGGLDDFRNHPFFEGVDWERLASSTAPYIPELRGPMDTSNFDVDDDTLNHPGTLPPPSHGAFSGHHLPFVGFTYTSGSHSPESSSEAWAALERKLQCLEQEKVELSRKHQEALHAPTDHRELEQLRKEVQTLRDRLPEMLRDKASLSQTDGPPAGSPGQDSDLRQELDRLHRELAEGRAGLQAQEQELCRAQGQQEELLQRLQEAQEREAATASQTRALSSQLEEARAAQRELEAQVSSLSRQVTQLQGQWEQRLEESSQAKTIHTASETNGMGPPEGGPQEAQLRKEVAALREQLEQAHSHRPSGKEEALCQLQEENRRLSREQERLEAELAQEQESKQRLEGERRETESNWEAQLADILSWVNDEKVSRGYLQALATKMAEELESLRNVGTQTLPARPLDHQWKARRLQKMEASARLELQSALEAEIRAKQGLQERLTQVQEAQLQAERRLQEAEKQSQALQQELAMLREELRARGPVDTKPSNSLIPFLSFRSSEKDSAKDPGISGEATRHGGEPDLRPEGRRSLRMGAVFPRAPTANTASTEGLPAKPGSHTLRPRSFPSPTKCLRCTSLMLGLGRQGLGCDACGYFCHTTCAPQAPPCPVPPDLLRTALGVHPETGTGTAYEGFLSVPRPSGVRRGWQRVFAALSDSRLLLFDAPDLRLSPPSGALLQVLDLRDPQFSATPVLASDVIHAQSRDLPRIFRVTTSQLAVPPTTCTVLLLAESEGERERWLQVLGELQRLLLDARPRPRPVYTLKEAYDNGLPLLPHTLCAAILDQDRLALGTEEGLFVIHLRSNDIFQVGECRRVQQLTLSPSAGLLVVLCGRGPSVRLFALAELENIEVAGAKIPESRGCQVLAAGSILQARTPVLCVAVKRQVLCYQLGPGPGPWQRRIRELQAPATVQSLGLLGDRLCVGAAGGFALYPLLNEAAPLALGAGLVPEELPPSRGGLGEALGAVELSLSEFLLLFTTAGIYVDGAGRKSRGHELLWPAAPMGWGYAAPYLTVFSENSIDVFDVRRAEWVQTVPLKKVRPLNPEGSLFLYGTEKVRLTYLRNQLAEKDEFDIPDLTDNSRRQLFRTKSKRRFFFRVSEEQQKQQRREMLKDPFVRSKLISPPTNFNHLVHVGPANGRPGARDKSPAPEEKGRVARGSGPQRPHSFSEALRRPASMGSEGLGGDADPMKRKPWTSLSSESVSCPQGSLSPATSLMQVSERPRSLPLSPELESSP

[17] = biological target: Ribosomal protein S6 kinase alpha-6 (Homo sapiens) (UniProt Q9UK32); assay: Inhibition of human N-terminal RSK4 kinase domain 1 (M1 to E397 residues) expressed in mammalian expression system assessed as residual activity at 50 nM by KINOMEscan assay relative to control
[18] = biological target: Serine/threonine-protein kinase PAK 4 (Homo sapiens) (UniProt O96013); assay: Inhibition of wild-type human partial length PAK4 (Q144 to R438 residues) expressed in bacterial expression system assessed as residual activity at 50 nM by Kinomescan method relative to control
[19] = biological target: Casein kinase II subunit alpha (Homo sapiens) (UniProt P68400); assay: Inhibition of wild-type human full length CK2A1 (M1 to Q391 residues) expressed in mammalian expression system assessed as residual activity at 50 nM by Kinomescan method relative to control
[20] = biological target: Death-associated protein kinase 1 (Homo sapiens) (UniProt P53355); assay: Inhibition of wild-type human partial length DAPK1 (M1 to F296 residues) expressed in bacterial expression system assessed as residual activity at 50 nM by Kinomescan method relative to control
[21] = biological target: Tyrosine-protein kinase receptor TYRO3 (Homo sapiens) (UniProt Q06418); assay: Inhibition of wild-type human partial length TYRO3 (S497 to T814 residues) expressed in bacterial expression system assessed as residual activity at 50 nM by Kinomescan method relative to control
[22] = biological target: Dual specificity protein kinase CLK2 (Homo sapiens) (UniProt P49760); assay: Inhibition of wild-type human partial length CLK2 (D144 to R498 residues) expressed in bacterial expression system assessed as residual activity at 50 nM by Kinomescan method relative to control
[23] = biological target: Cytoplasmic tyrosine-protein kinase BMX (Homo sapiens) (UniProt P51813); assay: Inhibition of wild-type human full length BMX (M1 to H675 residues) expressed in bacterial expression system assessed as residual activity at 50 nM by Kinomescan method relative to control
Sequence of Cytoplasmic tyrosine-protein kinase BMX (Homo sapiens) (P51813 whole entry, the tested form may be a part): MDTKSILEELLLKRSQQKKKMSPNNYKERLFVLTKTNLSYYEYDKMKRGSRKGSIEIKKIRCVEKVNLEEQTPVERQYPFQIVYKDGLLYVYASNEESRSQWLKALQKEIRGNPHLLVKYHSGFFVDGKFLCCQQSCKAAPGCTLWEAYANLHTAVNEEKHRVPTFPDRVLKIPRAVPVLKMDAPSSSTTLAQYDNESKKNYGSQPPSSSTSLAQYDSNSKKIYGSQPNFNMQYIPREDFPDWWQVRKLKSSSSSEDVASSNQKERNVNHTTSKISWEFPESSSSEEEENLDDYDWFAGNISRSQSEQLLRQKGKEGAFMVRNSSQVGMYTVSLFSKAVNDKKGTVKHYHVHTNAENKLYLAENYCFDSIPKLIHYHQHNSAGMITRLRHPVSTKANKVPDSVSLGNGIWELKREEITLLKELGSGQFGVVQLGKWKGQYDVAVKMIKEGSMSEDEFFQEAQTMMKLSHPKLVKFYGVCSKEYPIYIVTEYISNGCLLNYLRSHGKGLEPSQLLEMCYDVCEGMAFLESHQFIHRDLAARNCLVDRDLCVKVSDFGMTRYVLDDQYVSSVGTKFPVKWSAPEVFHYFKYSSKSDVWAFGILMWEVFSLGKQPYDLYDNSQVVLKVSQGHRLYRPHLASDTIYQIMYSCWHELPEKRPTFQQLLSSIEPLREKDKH

[24] = biological target: NUAK family SNF1-like kinase 2 (Homo sapiens) (UniProt Q9H093); assay: Inhibition of human NUAK2 (P22 to A333 residues) expressed in mammalian expression system assessed as residual activity at 50 nM by KINOMEscan assay relative to control
Sequence of NUAK family SNF1-like kinase 2 (Homo sapiens) (Q9H093 whole entry, the tested form may be a part): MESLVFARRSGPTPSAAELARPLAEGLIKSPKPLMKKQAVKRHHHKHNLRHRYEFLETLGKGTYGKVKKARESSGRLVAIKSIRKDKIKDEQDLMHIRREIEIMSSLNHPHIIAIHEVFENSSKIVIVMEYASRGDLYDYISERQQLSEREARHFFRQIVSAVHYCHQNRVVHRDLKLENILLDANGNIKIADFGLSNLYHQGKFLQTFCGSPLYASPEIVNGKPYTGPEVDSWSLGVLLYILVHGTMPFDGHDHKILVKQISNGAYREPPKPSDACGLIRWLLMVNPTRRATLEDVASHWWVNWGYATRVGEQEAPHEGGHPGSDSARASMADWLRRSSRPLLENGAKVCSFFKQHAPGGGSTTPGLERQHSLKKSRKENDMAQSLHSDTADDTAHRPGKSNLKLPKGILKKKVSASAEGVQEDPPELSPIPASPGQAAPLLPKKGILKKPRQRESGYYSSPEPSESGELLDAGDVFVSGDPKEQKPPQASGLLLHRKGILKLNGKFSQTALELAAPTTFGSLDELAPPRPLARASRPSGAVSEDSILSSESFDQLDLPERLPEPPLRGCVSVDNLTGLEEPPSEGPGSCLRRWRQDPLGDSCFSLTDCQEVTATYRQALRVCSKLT

[25] = biological target: Leucine-rich repeat serine/threonine-protein kinase 2 (Homo sapiens) (UniProt Q5S007); assay: Inhibition of wild-type human partial length LRRK2 (H970 to E2527 residues) expressed in mammalian expression system assessed as residual activity at 50 nM by Kinomescan method relative to control

Structure (SMILES) | Activity [1] [%] | Activity [2] [%] | Activity [3] [%] | Activity [4] [%] | Activity [5] [%] | Activity [6] [%] | Activity [7] [%] | Activity [8] [%] | Activity [9] [%] | Activity [10] [%] | Activity [11] [%] | Activity [12] [%] | Activity [13] [%] | Activity [14] [%] | Activity [15] [%] | Activity [16] [%] | Activity [17] [%] | Activity [18] [%] | Activity [19] [%] | Activity [20] [%] | further results
COc1ccc(-c2cc3c(N[C@@H]4CC[C@](C)(N)C4(C)C)c(C(N)=O)cnn3c2)cn1 | 96 | 100 | 62 | 100 | 99 | 100 | 92 | 100 | 88 | 100 | 100 | 100 | 83 | 100 | 71 | 97 | 46 | 86 | 100 | 96 | Activity [21]: 89%; Activity [22]: 71%; Activity [23]: 64%; Activity [24]: 7%; Activity [25]: 25%
CC1(C)[C@H](Nc2c(C(N)=O)cnn3cc(-c4ccccc4)cc23)CC[C@]1(C)N | 100 | 92 | 37 | 100 | 100 | 99 | 81 | 100 | 65 | 73 | 100 | 92 | 100 | 82 | 61 | 37 | 14 | 73 | 56 | 63 | Activity [21]: 100%; Activity [22]: 69%; Activity [23]: 100%; Activity [24]: 2.7%; Activity [25]: 21%
